Data published in patent US6287840A (Axys Pharmaceuticals, Inc., priority 1999, dated 2001).
Counter-ions that a name gives are not always drawn.

How the values were obtained:
[1] = tested on: calpain; assay: Inhibition (inactivation) of calpain, Suc-Leu-Tyr-AMC; type: biochemical; details: pH 7.5, 5 mM CaCl2, 25° C.; for k/KI (kirr/KI): values without asterisk; for kobs /[I]*: values marked * (or %)
Experimental: The inhibitors were tested against calpain at 1 or 2% as for the other enzymes. The reaction conditions were 50 mM Tris, pH 7.5, 5 mM CaCl2, 2.5 mM DTT, assayed at 25° C. The substrate was 100 μM Suc-Leu-Tyr-AMC.

[2] = molecular target: T1, Cathepsin L from rat liver (Rattus norvegicus, UniProt P07154); assay: Inhibition of cathepsin L, Z-Phe-Arg-AMC fluorescence progress curves; type: biochemical; details: for k/KI (kirr/KI): values without asterisk
T1 construct: Cathepsin L from rat liver; from tissue; host or cells: rat liver
Experimental: (§1) Stock solutions of the various inhibitors (10 mM) were made in DMF; dilutions were made in the same solvent. Cathepsin L from rat liver, (see Mason et al., Biochem. J. 226:233-241 (1985)) was approximately 1 nM in the assay. The assay buffer contained 50 mM phosphate at pH 6:2, 2.5 mM dithiothreitol (DTT), and 2.5 mM ethylenediaminetetraacetic acid (EDTA). The substrate for cathepsin L was 5 μM Z-Phe-Arg-AMC (carbobenzyloxyphenylalanylarginylaminomethylcoumarin). The assays were initiated at 25° C. by addition of enzyme to 2 mL of assay buffer containing the substrate and the various inhibitors (30-0.001 μM). The increase in fluorescence at 460 nm with excitation at 380 nm was followed with time. Inactivation of cathepsin L was indicated by a downward curve in the increase in fluorescence with time. In the absence of inhibitors, the enzymatic production of free AMC was linear throughout the time course of inactivation examined. Data points were collected over at least 3 half-times of inactivation. The inhibition progress curves were analyzed using non-linear curve fitting software to compute the kobs values. Approximate second-order inactivation constants (kobs /[I]) were calculated for all compounds. For selected inhibitors, plots of 1/[I] vs. 1/kobs yielded the true constants kirr, KI, and kirr/KI and were corrected for the presence of substrate by dividing KI (app.) by (1+[S]/Km).

[3] = molecular target: T2, Cathepsin B from human placenta (Homo sapiens, UniProt P07858); assay: Inhibition of cathepsin B, Z-Arg-Arg-AMC fluorescence progress curves; type: biochemical; details: for k/KI (kirr/KI): values without asterisk
T2 construct: Cathepsin B from human placenta, obtained from Sigma; purchased Sigma; host or cells: human placenta (tissue)
Experimental: Stock solutions of the various inhibitors (10 mM) were made in DMF; dilutions were made in the same solvent. Cathepsin B from human placenta, obtained from Sigma, was approximately 10 nM in the assay. The assay buffer contained 50 mM phosphate at pH 6.2, 2.5 mM dithiothreitol (DTT), and 2.5 mM ethylenediaminetetraacetic acid (EDTA). The substrate for cathepsin B was 50 μM Z-Arg-Arg-AMC (carbobenzyloxyarginylarginylaminomethylcoumarin). The assays were initiated at 25° C. by addition of enzyme to 2 mL of assay buffer containing the substrate and the various inhibitors (30-0.001 (μM). The increase in fluorescence at 460 nm with excitation at 380 nm was followed with time, and the assay was linear throughout the range observed. Inactivation of cathepsin B was indicated by a downward curve in the increase in fluorescence with time. In the absence of inhibitors, the enzymatic production of free AMC was linear throughout the time course of inactivation examined. Data points were collected over at least 3 half-times of inactivation, and in duplicate. The inhibition progress curves were analyzed using non-linear curve fitting software to compute the kobs values. Approximate second-order inactivation constants (kobs /[I]) were calculated for all compounds. For selected inhibitors, plots of 1/[I] vs. 1/kobs yielded the true constants kirr, KI, and kirr /KI, and were corrected for the presence of substrate by dividing KI (app.) by {1+[S]/Km }.

[4] = molecular target: cruzain, from T. cruzi (Trypanosoma cruzi, UniProt P25779); assay: Inhibition of cruzain, as for cathepsin L; type: biochemical; details: for kobs /[I]* (approximate second-order inactivation constant) / kinact/KI: values marked *; for k/KI (kirr/KI): values without asterisk; for kinact/KI: pH 6.2, read-out: kobs /[I]* (approximate second-order inactivation constant)
Experimental: as §1
Inhibition of cruzain, from T. cruzi, (see Eakin et at., J. Biol. Chem. 268(9): 6115-6118 (1993)) proceeded exactly as for cathepsin L, outlined above, using an enzyme concentration of 1 nM.

[5] = molecular target: T3, Cloned cathepsin S (Homo sapiens, UniProt P25774); assay: Inhibition of cathepsin S, Z-Val-Val-Arg-AMC fluorescence progress curves; type: biochemical
T3 construct: made in house
Experimental: Stock solutions of the various inhibitors (10 mM) were made in DMF; dilutions were made in the same solvent. Cloned cathepsin S, (see Bromme et al., J. Biol. Chem. 268(&): 4832-4838 (1993)) was less than 1 nM in the assay. The assay buffer contained 100 mM phosphate at pH 6.5, 0.01% Triton, 2.5 mM dithiothreitol (DTT), and 2.5 mM ethylenediaminetetraacetic acid (EDTA). The substrate for cathepsin S was 10 μM Z-Val-Val-Arg-AMC (carbobenzyloxyvalinylvalinylarginylaminomethylcoumarin). The assays were initiated at 25° C. by addition of enzyme to 2 mL of assay buffer containing the substrate and the various inhibitors (30-0.001 μM). The increase in fluorescence at 460 nm with excitation at 380 nm was followed with time. Inactivation of cathepsin S was indicated by a downward curve in the increase in fluorescence with time. In the absence of inhibitors, the enzymatic production of free AMC was linear throughout the time course of inactivation examined. Data points were collected over at least 3 half-times of inactivation. The inhibition progress curves were analyzed using non-linear curve fitting software to compute the kobs values. Approximate second-order inactivation constants (kobs /[I]) were calculated for all compounds. For selected inhibitors, plots of 1/[I] vs. 1/kobs yielded the true constants kirr, KI, and kirr /KI, and were corrected for the presence of substrate by dividing KI (app.) by {1+[S]/Km}.

[6] = tested on: Leishmania donovani amastigote infected mouse peritoneal macrophages; assay: In vitro antiprotozoal activity, Leishmania donovani; type: cell-based
Experimental: (§2) In this table, the in vitro antiprotozoal activities of the indicated compounds were measured as percentage inhibition of Leishmania donovani amastigote infecteda mouse peritoneal macrophages, Trypanosoma cruzi amastigote infected macrophages, and Trypanosoma brucei extracellular bloodstream forms.

[7] = tested on: Trypanosoma cruzi amastigote infected macrophages; assay: In vitro antiprotozoal activity, Trypanosoma cruzi; type: cell-based
Experimental: as §2

[8] = tested on: Trypanosoma brucei extracellular bloodstream forms; assay: In vitro antiprotozoal activity, Trypanosoma brucei; type: cell-based
Experimental: as §2

[9] = tested on: human malarial parasite Plasmodium falciparum; assay: In vitro protease activity of malarial parasite, substrate Z-Phe-Arg-AMC; type: biochemical; details: cells printed in μM; read-out: P. falciparum IC50 (human)
Excerpt: The following table summarizes the comparative IC50 values for selected cysteine protease inhibitors against the human malarial parasite Plasmodium falciparum and the mouse malarial parasite Plasmodium vinckei. The substrate used to measure in vitro protease activity was Z-Phe-Arg-AMC.

T1 sequence (P07154 114-288 limits assumed): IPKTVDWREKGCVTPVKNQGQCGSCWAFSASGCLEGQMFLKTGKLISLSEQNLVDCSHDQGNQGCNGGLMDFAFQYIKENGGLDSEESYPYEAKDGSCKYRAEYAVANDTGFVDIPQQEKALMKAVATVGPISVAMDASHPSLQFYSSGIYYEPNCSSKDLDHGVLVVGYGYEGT
T1 sequence (P07154 291-334 limits assumed): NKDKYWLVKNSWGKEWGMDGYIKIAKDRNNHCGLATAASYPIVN
T3 sequence (P25774 115-331): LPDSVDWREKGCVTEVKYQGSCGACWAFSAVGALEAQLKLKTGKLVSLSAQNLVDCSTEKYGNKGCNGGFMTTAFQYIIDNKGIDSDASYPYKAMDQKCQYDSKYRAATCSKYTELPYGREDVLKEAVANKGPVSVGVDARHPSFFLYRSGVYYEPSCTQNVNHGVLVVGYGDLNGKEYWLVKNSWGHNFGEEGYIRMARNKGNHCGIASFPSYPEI
Chain of cruzain, from T. cruzi (P25779 123-337 limits assumed): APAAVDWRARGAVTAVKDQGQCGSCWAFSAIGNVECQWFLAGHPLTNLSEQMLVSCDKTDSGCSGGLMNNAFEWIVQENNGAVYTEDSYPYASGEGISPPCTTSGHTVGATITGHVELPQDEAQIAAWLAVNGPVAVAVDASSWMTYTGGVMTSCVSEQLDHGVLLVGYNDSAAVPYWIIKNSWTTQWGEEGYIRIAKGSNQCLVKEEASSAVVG

CC(Cc1ccccc1)(NC(=O)N1CCOCC1)C(=O)N[C@H](/C=C/S(=O)(=O)c1ccccc1)CCc1ccccc1 (mixture of isomers) [Mu-DL-Fam-HphVSPh]
k/KI (kirr/KI) [1]: 0 M⁻¹ s⁻¹
KI ([2]; corrected for substrate): binds
k/KI (kirr/KI) ([2]; 25° C., pH 6.2): 0 M⁻¹ s⁻¹
KI ([3]; corrected for substrate): binds
k/KI (kirr/KI) ([3]; 25° C., pH 6.2): 0 M⁻¹ s⁻¹
kobs /[I]* (approximate second-order inactivation constant) [4]: 18,100 M^-1 sec^-1
kirr [5]: 0.54 s⁻¹
Ki ([5]; corrected for substrate): 14 µM
k/KI (kirr/KI) ([5]; values without asterisk, 25° C., pH 6.5): 39,000 M^-1 sec^-1

CSCC[C@@H](/C=C/S(=O)(=O)c1ccccc1)NC(=O)[C@H](CC(C)C)NC(=O)[C@H](CC(C)C)NC(C)=O [Ac-Leu-Leu-MetVSPh, (S)-(E)-3-(acetylleucylleucyl)amino-1-phenylsulfonyl-6-thia-1-heptene]
kobs /[I]* [1]: 5,600 M^-1 sec^-1
k/KI (kirr/KI) ([2]; 25° C., pH 6.2): 880,000 M^-1 sec^-1
k/KI (kirr/KI) ([3]; 25° C., pH 6.2): 0 M⁻¹ s⁻¹
k/KI (kirr/KI) [4]: 110,000 M^-1 sec^-1

CCCC[C@@H](/C=C/S(=O)(=O)c1ccccc1)NC(=O)[C@H](CC(C)C)NC(=O)[C@H](CC(C)C)NC(C)=O [Ac-Leu-Leu-NleVSPh, (S)-(E)-3-(acetylleucylleucyl)amino-1-phenylsulfonyl-1-heptene]
kobs /[I]* [1]: 6,900 M^-1 sec^-1
k/KI (kirr/KI) ([2]; 25° C., pH 6.2): 930,000 M^-1 sec^-1
k/KI (kirr/KI) ([3]; 25° C., pH 6.2): 0 M⁻¹ s⁻¹
k/KI (kirr/KI) [4]: 133,000 M^-1 sec^-1

CC(=O)N[C@@H](Cc1ccc(O)cc1)C(=O)N[C@H](C(=O)N[C@@H](C)C(=O)NC(/C=C/S(=O)(=O)c1ccccc1)CC(=O)O)C(C)C (stereo partly drawn) [Ac-Tyr-Val-Ala-AspVSPh, (e)-3-acetyltyrosylvalylalanylamino-4-hydroxycarbonyl-1-phenylsulfonyl-1-butene]
k/KI (kirr/KI) [1]: 0 M⁻¹ s⁻¹
k/KI (kirr/KI) ([2]; 25° C., pH 6.2): 0 M⁻¹ s⁻¹
k/KI (kirr/KI) [4]: 0 M⁻¹ s⁻¹

CC(C)(C)OC(=O)C[C@@H](/C=C/S(C)(=O)=O)NC(=O)OC(C)(C)C [Boc-Asp(O-tBu)VSMe, (S)-(E)-3-tert-butoxycarbonylamino-4-tert-butoxycarbonyl-1-methylsulfonyl-1-butene]
inhibition at 3 µM ([6]; Leishmania donovani, Peritoneal macrophage, 3 uM, read-out: percentage inhibition, L. donovani): 0%
inhibition at 10 µM ([6]; Leishmania donovani, Peritoneal macrophage, 10 uM, read-out: percentage inhibition, L. donovani): 0%
inhibition at 30 µM ([6]; Leishmania donovani, Peritoneal macrophage, 30 uM, read-out: percentage inhibition, L. donovani): 13.4%
inhibition at 90 µM ([6]; Leishmania donovani, Peritoneal macrophage, 90 uM, read-out: percentage inhibition, L. donovani): 12.9%
k/KI (kirr/KI) [1]: 0 M⁻¹ s⁻¹
inhibition at 3 µM ([7]; Trypanosoma cruzi, Macrophage, 3 uM, read-out: percentage inhibition, T. cruzi): 0%
inhibition at 10 µM ([7]; Trypanosoma cruzi, Macrophage, 10 uM, read-out: percentage inhibition, T. cruzi): 0%
inhibition at 30 µM ([7]; Trypanosoma cruzi, Macrophage, 30 uM, read-out: percentage inhibition, T. cruzi): 0%
inhibition at 90 µM ([7]; Trypanosoma cruzi, Macrophage, 90 uM, read-out: percentage inhibition, T. cruzi): 9.9%
k/KI (kirr/KI) ([2]; 25° C., pH 6.2): 0 M⁻¹ s⁻¹
k/KI (kirr/KI) ([3]; 25° C., pH 6.2): 0 M⁻¹ s⁻¹
kinact/KI [4]: 800 M⁻¹ s⁻¹
inhibition at 3 µM ([8]; Trypanosoma brucei, 3 uM, read-out: percentage inhibition, T. brucei): 0%
inhibition at 10 µM ([8]; Trypanosoma brucei, 10 uM, read-out: percentage inhibition, T. brucei): 0%
inhibition at 30 µM ([8]; Trypanosoma brucei, 30 uM, read-out: percentage inhibition, T. brucei): 0%
inhibition at 90 µM ([8]; Trypanosoma brucei, 90 uM, read-out: percentage inhibition, T. brucei): 0%

CC(N)C(=O)NC(C=CS(C)(=O)=O)Cc1ccccc1 (stereo not drawn) [HCl.Ala-PheVSMe]
IC50 [9]: > 100 µM

Br.Br.N=C(N)NCCC[C@@H](/C=C/S(=O)(=O)c1ccccc1)NC(=O)[C@H](CCCNC(=N)N)NC(=O)N1CCOCC1 [Mu-Arg-ARgVSPh.2HBr, (S)-(E)-3-(4-morpholinecarbonylarginyl)amino-6-guanidino-1-phenylsulfonyl-1-hexene dihydrobromide]
kobs /[I]* [1]: < 50 M⁻¹ s⁻¹
kirr [3]: 0.040 s⁻¹
Ki ([3]; corrected for substrate): 150 µM
k/KI (kirr/KI) ([3]; 25° C., pH 6.2): 26 M⁻¹ s⁻¹
kobs /[I]* (approximate second-order inactivation constant) [4]: 2,100 M^-1 sec^-1

CC(C)C[C@H](NC(=O)OCc1ccccc1)C(=O)N[C@@H](CC(C)C)C(=O)N[C@H](/C=C/S(=O)(=O)c1ccccc1)Cc1ccc(O)cc1 [Z-Leu-Leu-TyrVSPh, (S)-(E)-3-(benzyloxycarbonylleucylleucyl)amino-4-(4-hydroxyphenyl)-1-phenylsulfonyl-1-butene]
kobs /[I]* [1]: 36,400 M^-1 sec^-1
k/KI (kirr/KI) [1]: 24,300 M^-1 sec^-1
kinact/KI ([3]; values marked *, 25° C., pH 6.2, read-out: kobs /[I]* (approximate second-order inactivation constant)): 730 M⁻¹ s⁻¹
kinact/KI [4]: 45000 M⁻¹ s⁻¹
kinact/KI ([5]; values marked *, 25° C., pH 6.5, read-out: kobs /[I]* (approximate second-order inactivation constant)): 280000 M⁻¹ s⁻¹

(S)-(E)-3-(4-morpholinecarbonylphenylalanyl)amino-1-methylsulfonyl-1-butene [Mu-Phe-AlaVSMe]
percentage inhibition, L. donovani ([6]; 3 uM): 0%
percentage inhibition, L. donovani ([6]; 10 uM): 0%
percentage inhibition, L. donovani ([6]; 30 uM): 0%
percentage inhibition, L. donovani ([6]; 90 uM): 6.7%
kobs /[I]* [1]: < 50 M⁻¹ s⁻¹
percentage inhibition, T. cruzi ([7]; 3 uM): 0%
percentage inhibition, T. cruzi ([7]; 10 uM): 0%
percentage inhibition, T. cruzi ([7]; 30 uM): 11.2%
percentage inhibition, T. cruzi ([7]; 90 uM): 12.2%
kirr [3]: 0.19 s⁻¹
Ki ([3]; corrected for substrate): ~1000 µM
k/KI (kirr/KI) ([3]; 25° C., pH 6.2): 300 M⁻¹ s⁻¹
kobs /[I]* (approximate second-order inactivation constant) [4]: 700 M⁻¹ s⁻¹
kobs /[I]* (approximate second-order inactivation constant) ([5]; values marked *, 25° C., pH 6.5): 26,000 M^-1 sec^-1
percentage inhibition, T. brucei ([8]; 3 uM): 0%
percentage inhibition, T. brucei ([8]; 10 uM): 0%
percentage inhibition, T. brucei ([8]; 30 uM): 0%
percentage inhibition, T. brucei ([8]; 90 uM): 0%
IC50 [9]: 20 µM

(S)-(E)-3-(4-morpholinecarbonylphenylalanyl)amino-1-methylsulfonyl-4-phenyl-1-butene [Mu-Phe-PheVSMe]
kobs /[I]* [1]: 260 M⁻¹ s⁻¹
kobs /[I]* (approximate second-order inactivation constant) ([2]; values marked *, 25° C., pH 6.2): 100 M⁻¹ s⁻¹
IC50 [9]: 2 µM
